From PubChem BioAssay (NCI)
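Briefly, cells in 96-well plates were exposed to five compound concentrations for 48 h, and endpoints were estimated by linear interpolation. TGI: concentration producing complete growth inhibition.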

What was measured:
Assay in all cases: NCI-60 cell line screen, 48 h
EKVX NSCLC = tested on: EKVX NSCLC
UACC-257 melanoma = tested on: UACC-257 melanoma
MOLT-4 leukemia = tested on: MOLT-4 leukemia
LXFL 529 NSCLC = tested on: LXFL 529 NSCLC
SK-MEL-28 melanoma = tested on: SK-MEL-28 melanoma
HT29 colon = tested on: HT29 colon
ACHN renal = tested on: ACHN renal
HL-60(TB) leukemia = tested on: HL-60(TB) leukemia
IGROV1 ovarian = tested on: IGROV1 ovarian
A549 NSCLC = tested on: A549 NSCLC
M14 melanoma = tested on: M14 melanoma
DLD-1 colon = tested on: DLD-1 colon
SK-MEL-5 melanoma = tested on: SK-MEL-5 melanoma
SR leukemia = tested on: SR leukemia
COLO 205 colon = tested on: COLO 205 colon
NCI-H522 lung = tested on: NCI-H522 lung
SF-268 CNS = tested on: SF-268 CNS
DMS 114 small cell lung = tested on: DMS 114 small cell lung
TK-10 renal = tested on: TK-10 renal
786-0 renal = tested on: 786-0 renal
SF-539 CNS = tested on: SF-539 CNS
U251 CNS = tested on: U251 CNS
K-562 leukemia = tested on: K-562 leukemia
LOX IMVI melanoma = tested on: LOX IMVI melanoma
OVCAR-8 ovarian = tested on: OVCAR-8 ovarian
KM20L2 colon = tested on: KM20L2 colon
UACC-62 melanoma = tested on: UACC-62 melanoma
HCC-2998 colon = tested on: HCC-2998 colon
HOP-92 NSCLC = tested on: HOP-92 NSCLC
NCI-H23 lung = tested on: NCI-H23 lung
OVCAR-5 ovarian = tested on: OVCAR-5 ovarian
RXF 393 renal = tested on: RXF 393 renal
KM12 colon = tested on: KM12 colon
HOP-62 NSCLC = tested on: HOP-62 NSCLC
RPMI-8226 leukemia = tested on: RPMI-8226 leukemia
NCI-H460 lung = tested on: NCI-H460 lung
UO-31 renal = tested on: UO-31 renal
NCI-H226 lung = tested on: NCI-H226 lung
OVCAR-3 ovarian = tested on: OVCAR-3 ovarian
CCRF-CEM leukemia = tested on: CCRF-CEM leukemia
SN12C renal = tested on: SN12C renal
M19-MEL melanoma = tested on: M19-MEL melanoma
CAKI-1 renal = tested on: CAKI-1 renal
HCT-116 colon = tested on: HCT-116 colon
SNB-19 CNS = tested on: SNB-19 CNS
HCT-15 colon = tested on: HCT-15 colon
SNB-75 CNS = tested on: SNB-75 CNS
SF-295 CNS = tested on: SF-295 CNS
SK-OV-3 ovarian = tested on: SK-OV-3 ovarian
XF 498 CNS = tested on: XF 498 CNS
MALME-3M melanoma = tested on: MALME-3M melanoma
HOP-18 NSCLC = tested on: HOP-18 NSCLC
SW-620 colon = tested on: SW-620 colon
A498 renal = tested on: A498 renal
OVCAR-4 ovarian = tested on: OVCAR-4 ovarian
SK-MEL-2 melanoma = tested on: SK-MEL-2 melanoma
SNB-78 CNS = tested on: SNB-78 CNS
DMS 273 small cell lung = tested on: DMS 273 small cell lung

O=C(CC1=Nc2nnc(CCCCCCCc3nnc4n3C(=O)C(CC(=O)c3ccccc3)=N4)n2C1=O)c1ccccc1
TGI (EKVX NSCLC): > 100 µM | TGI (UACC-257 melanoma): > 100 µM | TGI (MOLT-4 leukemia): > 100 µM | TGI (LXFL 529 NSCLC): > 100 µM | TGI (SK-MEL-28 melanoma): > 100 µM | TGI (HT29 colon): > 100 µM | TGI (ACHN renal): > 100 µM | TGI (HL-60(TB) leukemia): > 100 µM | TGI (IGROV1 ovarian): > 100 µM | TGI (A549 NSCLC): > 100 µM | TGI (M14 melanoma): > 100 µM | TGI (DLD-1 colon): > 100 µM | TGI (SK-MEL-5 melanoma): > 100 µM | TGI (SR leukemia): > 100 µM | TGI (COLO 205 colon): > 100 µM | TGI (NCI-H522 lung): > 100 µM | TGI (SF-268 CNS): > 100 µM | TGI (DMS 114 small cell lung): > 100 µM | TGI (TK-10 renal): > 100 µM | TGI (786-0 renal): > 100 µM | TGI (SF-539 CNS): > 100 µM | TGI (U251 CNS): > 100 µM | TGI (K-562 leukemia): > 100 µM | TGI (LOX IMVI melanoma): > 100 µM | TGI (OVCAR-8 ovarian): > 100 µM | TGI (KM20L2 colon): > 100 µM | TGI (UACC-62 melanoma): > 100 µM | TGI (HCC-2998 colon): > 100 µM | TGI (HOP-92 NSCLC): > 100 µM | TGI (NCI-H23 lung): > 100 µM | TGI (OVCAR-5 ovarian): > 100 µM | TGI (RXF 393 renal): > 100 µM | TGI (KM12 colon): > 100 µM | TGI (HOP-62 NSCLC): > 100 µM | TGI (RPMI-8226 leukemia): > 100 µM | TGI (NCI-H460 lung): > 100 µM | TGI (UO-31 renal): > 100 µM | TGI (NCI-H226 lung): > 100 µM | TGI (OVCAR-3 ovarian): > 100 µM | TGI (CCRF-CEM leukemia): > 100 µM | TGI (SN12C renal): > 100 µM | TGI (M19-MEL melanoma): > 100 µM | TGI (CAKI-1 renal): > 100 µM | TGI (HCT-116 colon): > 100 µM | TGI (SNB-19 CNS): > 100 µM | TGI (HCT-15 colon): > 100 µM | TGI (SNB-75 CNS): > 100 µM | TGI (SF-295 CNS): > 100 µM | TGI (SK-OV-3 ovarian): > 100 µM | TGI (XF 498 CNS): > 100 µM | TGI (MALME-3M melanoma): > 100 µM | TGI (HOP-18 NSCLC): > 100 µM | TGI (SW-620 colon): > 100 µM | TGI (A498 renal): > 100 µM

COc1ccc(C2=C3c4cc(OC)c(OC)cc4CCN3C(=S)SS2)cc1OC
TGI (EKVX NSCLC): > 100 µM | TGI (UACC-257 melanoma): > 100 µM | TGI (MOLT-4 leukemia): > 100 µM | TGI (LXFL 529 NSCLC): > 100 µM | TGI (SK-MEL-28 melanoma): > 100 µM | TGI (HT29 colon): > 100 µM | TGI (ACHN renal): > 100 µM | TGI (HL-60(TB) leukemia): > 100 µM | TGI (IGROV1 ovarian): > 100 µM | TGI (A549 NSCLC): > 100 µM | TGI (OVCAR-4 ovarian): > 100 µM | TGI (SK-MEL-2 melanoma): > 100 µM | TGI (M14 melanoma): > 100 µM | TGI (DLD-1 colon): > 100 µM | TGI (SK-MEL-5 melanoma): > 100 µM | TGI (COLO 205 colon): > 100 µM | TGI (NCI-H522 lung): > 100 µM | TGI (SF-268 CNS): > 100 µM | TGI (DMS 114 small cell lung): > 100 µM | TGI (TK-10 renal): > 100 µM | TGI (786-0 renal): > 100 µM | TGI (SF-539 CNS): > 100 µM | TGI (U251 CNS): > 100 µM | TGI (K-562 leukemia): > 100 µM | TGI (LOX IMVI melanoma): > 100 µM | TGI (OVCAR-8 ovarian): > 100 µM | TGI (KM20L2 colon): > 100 µM | TGI (UACC-62 melanoma): > 100 µM | TGI (HCC-2998 colon): > 100 µM | TGI (HOP-92 NSCLC): > 100 µM | TGI (NCI-H23 lung): > 100 µM | TGI (OVCAR-5 ovarian): > 100 µM | TGI (RXF 393 renal): > 100 µM | TGI (KM12 colon): > 100 µM | TGI (HOP-62 NSCLC): > 100 µM | TGI (SNB-78 CNS): > 100 µM | TGI (RPMI-8226 leukemia): > 100 µM | TGI (NCI-H460 lung): > 100 µM | TGI (UO-31 renal): > 100 µM | TGI (NCI-H226 lung): > 100 µM | TGI (OVCAR-3 ovarian): > 100 µM | TGI (CCRF-CEM leukemia): > 100 µM | TGI (SN12C renal): > 100 µM | TGI (M19-MEL melanoma): > 100 µM | TGI (CAKI-1 renal): > 100 µM | TGI (HCT-116 colon): > 100 µM | TGI (SNB-19 CNS): > 100 µM | TGI (HCT-15 colon): > 100 µM | TGI (SNB-75 CNS): > 100 µM | TGI (SF-295 CNS): > 100 µM | TGI (SK-OV-3 ovarian): > 100 µM | TGI (DMS 273 small cell lung): > 100 µM | TGI (MALME-3M melanoma): 97.6 µM | TGI (HOP-18 NSCLC): > 100 µM | TGI (SW-620 colon): > 100 µM | TGI (A498 renal): > 100 µM
